Values of other authors, collected in US6476042B1, “Combination therapy for the treatment of migraine” (Pfizer Inc., priority 1999, dated 2002).

Test system: carotid vascular resistance
Details: anaesthetized dog

## CNS(=O)(=O)Cc1ccc2[nH]cc(CCN(C)C)c2c1 [Sumatriptan, sumatriptan]
  effect on carotid vascular resistance: selective increase
